Results from patent US3985774A, “Purification of γ-oxo-2-dibenzofuranbutyric acid” (American Home Products Corporation, priority 1972, dated 1976).

Assays:
carragheenin paw edema = carragheenin paw edema test; format: in vivo, rat; conditions: rats; for % INHIBITION of edema / EDEMA (results expressed in grams of mercury displaced): 3 h after carragheenin
Protocol: A. Winter, et al., Proc. Soc. Exp. Biol., lll, 544 (1962). […] A. Winter in "Non-Steroidal Anti-inflammatory Drugs", S. Garattine and M. N. G. Dukes, Eds., Excerpta Medica International Congress, Ser. No. 82, 1965, p. 190.
More particularly exemplified a substantial effect for γ-oxo-2-dibenzofuranbutyric acid is demonstrable at oral doses of 200 mg/kg or less in this paw edema test. In this test rats are treated with the test compound one hour before a 1% suspension of carragheenin in saline is injected into the subplantar area of the hind paw of the rat. Results are obtained by measuring the increase in paw volume caused by the resulting edema three hours later by plethysmography in mercury and expressing values as grams of mercury displaced. Control animals receive the vehicle only. The results are expressed as percent inhibition in edematous swelling calculated as [formula] where Δ control is the increase in volume measured in untreated controls and Δ treated is the increase in volume found in the treated animals.
The following table lists the results obtained for both γ-oxo-2-dibenzofuranbutyric acid (l) and its isomer ll.

inflammatory conditions = assay: antiinflammatory activity (pharmacologic testing); format: in vivo; conditions: for antiinflammatory properties / activity: in vivo
[1] = analgesic activity (standard pharmacologic test); conditions: in vivo
From the text: (§1) The useful antiinflammatory, analgesic and antipyretic activities of the product of this invention is demonstrable in standard pharmacologic tests, for example, the test described by R. A. Turner in "Screening Method in Pharmacology", Academic Press, New York and London, 1965, pp. 152-163, pp. 100-117 and pp. 298-299, respectively.

[2] = antipyretic activity (standard pharmacologic test); conditions: in vivo
From the text: as §1

warm-blooded animals = assay: toxicity / tolerance (acute toxicity tests and prolonged administration); conditions: in vivo
gastrointestinal ulcers = assay: ulcerogenic activity in a modification of a known method; format: in vivo; conditions: therapeutic dose levels
solubility in water = format: physicochemical

O=C(O)CCC(=O)c1ccc2oc3ccccc3c2c1 [γ-oxo-2-dibenzofuranbutyric acid]
% INHIBITION of edema (carragheenin paw edema; Experiment A, 50 mg/kg, oral): 37%
EDEMA (results expressed in grams of mercury displaced) (carragheenin paw edema; Experiment A, 50 mg/kg, oral): 7.7 ± 0.88 grams of mercury displaced
% INHIBITION of edema (carragheenin paw edema; Experiment A, 100 mg/kg, oral): 54%
EDEMA (results expressed in grams of mercury displaced) (carragheenin paw edema; Experiment A, 100 mg/kg, oral): 5.7 ± 0.42 grams of mercury displaced
% INHIBITION of edema (carragheenin paw edema; Experiment A, 200 mg/kg, oral): 78%
EDEMA (results expressed in grams of mercury displaced) (carragheenin paw edema; Experiment A, 200 mg/kg, oral): 2.7 ± 0.36 grams of mercury displaced
% INHIBITION of edema (carragheenin paw edema; Experiment C, 100 mg/kg): 60%
EDEMA (results expressed in grams of mercury displaced) (carragheenin paw edema; Experiment C, 100 mg/kg): 4.8 ± 0.46 grams of mercury displaced
minimal effective dose (carragheenin paw edema; Rattus norvegicus, oral, read-out: oral dose at which a substantial effect is demonstrable): ≤ 200 mg/kg
activity compared with isomer ll (Student's t test) (carragheenin paw edema; paw edema test): significantly more active than the isomer ll
antiinflammatory activity compared with isomer ll (inflammatory conditions; acid l versus isomer ll): somewhat more active
onset of action compared with isomer ll (inflammatory conditions; acid l versus isomer ll): quicker onset of action
antiinflammatory properties / activity (inflammatory conditions): important antiinflammatory properties
antiinflammatory properties / activity (inflammatory conditions; listed as acid l): have antiinflammatory activity
analgesic activity [1]: possesses analgesic and antipyretic activity
antipyretic activity [2]: possesses analgesic and antipyretic activity
side effects (warm-blooded animals): lack of side effects
therapeutic index (warm-blooded animals): highly favorable therapeutic index
tolerance (warm-blooded animals): exceptionally well tolerated
toxicity (warm-blooded animals): low order of toxicity
formation of gastrointestinal ulcers (gastrointestinal ulcers): does not cause formation of gastrointestinal ulcers
solubility in water (solubility in water): only limited solubility in water

O=C(O)CCC(=O)c1ccc2c(c1)oc1ccccc12 [γ-oxo-3-dibenzofuranbutyric acid]
% INHIBITION of edema (carragheenin paw edema; Experiment B, 100 mg/kg): 5%
EDEMA (results expressed in grams of mercury displaced) (carragheenin paw edema; Experiment B, 100 mg/kg): 13.6 ± 1.38 grams of mercury displaced
% INHIBITION of edema (carragheenin paw edema; Experiment B, 200 mg/kg): 34%
EDEMA (results expressed in grams of mercury displaced) (carragheenin paw edema; Experiment B, 200 mg/kg): 9.5 ± 1.11 grams of mercury displaced
% INHIBITION of edema (carragheenin paw edema; Experiment B, 400 mg/kg): 28%
EDEMA (results expressed in grams of mercury displaced) (carragheenin paw edema; Experiment B, 400 mg/kg): 10.3 ± 1.05 grams of mercury displaced
% INHIBITION of edema (carragheenin paw edema; Experiment C, 100 mg/kg): 18%
EDEMA (results expressed in grams of mercury displaced) (carragheenin paw edema; Experiment C, 100 mg/kg): 9.9 ± 0.67 grams of mercury displaced
antiinflammatory properties / activity (inflammatory conditions): have antiinflammatory activity
